Data published in US20150306086A1, “MODULATING CERTAIN TYROSINE KINASES” (Tesaro, Inc., priority 2011, published 2015).
Like-named read-outs stand apart in the source and are kept apart here. Blank lines part the entries; values can stand above or below the compound they belong to.

Assays:
[1] = target: T1, cytoplasmic domain (amino acids 1058-1620) of wild-type human ALK (Homo sapiens, UniProt Q9UM73); test: ALK inhibition in enzyme assay (Lance TR-FRET); assay type: biochemical
T1 construct: cytoplasmic domain (amino acids 1058-1620) of wild-type human ALK; GST (N); made in house; host or cells: SF9 cells

RET(M918T) = RET(M918T) (Homo sapiens, UniProt P07949, M918T); test: Off-chip mobility shift kinase assay, RET [M918T]; assay type: biochemical; settings: CSKtide 1000 nM, ATP 5 μM, Mg 5 mM
TRKA = TRKA (Homo sapiens, UniProt P04629); test: Off-chip mobility shift kinase assay, TRKA; assay type: biochemical; settings: CSKtide 1000 nM, ATP 75 μM, Mg 5 mM
RET = RET (Homo sapiens, UniProt P07949); test: Off-chip mobility shift kinase assay, RET; assay type: biochemical; settings: CSKtide 1000 nM, ATP 10 μM, Mg 5 mM
RET(G691S) = RET(G691S) (Homo sapiens, UniProt P07949, G691S); test: Off-chip mobility shift kinase assay, RET [G691S]; assay type: biochemical; settings: CSKtide 1000 nM, ATP 10 μM, Mg 5 mM
EGFR(T790M) = EGFR(T790M) (Homo sapiens, UniProt P00533, T790M); test: Off-chip mobility shift kinase assay, EGFR [T790M]; assay type: biochemical; settings: Srctide 1000 nM, ATP 1 μM, Mg + Mn 5 + 1 mM
RET(Y791F) = RET(Y791F) (Homo sapiens, UniProt P07949, Y791F); test: Off-chip mobility shift kinase assay, RET [Y791F]; assay type: biochemical; settings: CSKtide 1000 nM, ATP 25 μM, Mg 5 mM
KDR = KDR (Homo sapiens, UniProt P35968); test: Off-chip mobility shift kinase assay, KDR; assay type: biochemical; settings: CSKtide 1000 nM, ATP 75 μM, Mg 5 mM
TRKC = TRKC (Homo sapiens, UniProt Q16288); test: Off-chip mobility shift kinase assay, TRKC; assay type: biochemical; settings: Srctide 1000 nM, ATP 50 μM, Mg 5 mM
RET(S 891A) = RET(S 891A) (Homo sapiens, UniProt P07949, S891A); test: Off-chip mobility shift kinase assay, RET [S891A]; assay type: biochemical; settings: CSKtide 1000 nM, ATP 10 μM, Mg 5 mM
FLT1 = FLT1 (Homo sapiens, UniProt P17948); test: Off-chip mobility shift kinase assay, FLT1; assay type: biochemical; settings: CSKtide 1000 nM, ATP 150 μM, Mg 5 mM, reaction time 5 hours
TRKB = TRKB (Homo sapiens, UniProt Q16620); test: Off-chip mobility shift kinase assay, TRKB; assay type: biochemical; settings: Srctide 1000 nM, ATP 75 μM, Mg 5 mM
FAK = FAK (Homo sapiens, UniProt Q05397); test: Off-chip mobility shift kinase assay, FAK; assay type: biochemical; settings: Blk/Lyntide 1000 nM, ATP 25 μM, Mg 5 mM
FLT4 = FLT4 (Homo sapiens, UniProt P35916); test: Off-chip mobility shift kinase assay, FLT4; assay type: biochemical; settings: CSKtide 1000 nM, ATP 75 μM, Mg 5 mM
FLT3 = target: T2, FLT3 (Homo sapiens, UniProt P36888); test: Off-chip mobility shift kinase assay, FLT3; assay type: biochemical; settings: Srctide 1000 nM, ATP 100 μM, Mg 5 mM
T2 sequence (P36888 27-993): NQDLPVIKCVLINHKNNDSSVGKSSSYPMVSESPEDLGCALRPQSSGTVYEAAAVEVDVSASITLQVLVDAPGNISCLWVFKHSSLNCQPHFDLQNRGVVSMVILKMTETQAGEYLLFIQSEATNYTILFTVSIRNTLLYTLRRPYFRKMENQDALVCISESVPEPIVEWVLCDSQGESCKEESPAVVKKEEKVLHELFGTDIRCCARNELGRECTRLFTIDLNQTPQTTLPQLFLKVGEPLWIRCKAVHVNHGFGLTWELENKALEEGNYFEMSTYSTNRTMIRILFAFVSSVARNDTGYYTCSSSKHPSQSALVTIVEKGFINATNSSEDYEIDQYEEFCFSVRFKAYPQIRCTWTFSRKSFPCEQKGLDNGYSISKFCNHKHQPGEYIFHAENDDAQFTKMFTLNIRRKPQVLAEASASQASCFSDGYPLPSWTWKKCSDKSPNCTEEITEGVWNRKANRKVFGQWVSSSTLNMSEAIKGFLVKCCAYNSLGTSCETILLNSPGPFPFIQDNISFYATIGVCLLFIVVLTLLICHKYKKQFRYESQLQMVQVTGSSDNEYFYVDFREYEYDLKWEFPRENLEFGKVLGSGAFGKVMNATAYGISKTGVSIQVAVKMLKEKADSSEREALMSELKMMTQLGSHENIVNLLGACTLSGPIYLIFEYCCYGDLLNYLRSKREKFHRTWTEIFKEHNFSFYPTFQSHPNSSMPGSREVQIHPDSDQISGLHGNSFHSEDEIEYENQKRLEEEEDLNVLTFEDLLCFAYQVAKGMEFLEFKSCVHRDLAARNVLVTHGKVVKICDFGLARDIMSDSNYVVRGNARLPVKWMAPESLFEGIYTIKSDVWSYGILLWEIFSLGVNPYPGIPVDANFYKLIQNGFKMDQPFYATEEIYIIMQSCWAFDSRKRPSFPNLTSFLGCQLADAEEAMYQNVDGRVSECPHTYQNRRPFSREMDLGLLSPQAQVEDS

NGF = target: T3, NGF (Homo sapiens, UniProt P01138); settings: osteoarthritis pain study, cited from earlier work
T3 construct: host or cells: patients (endogenous NGF)

IC50 [1]: < 50 nM
Compound: CC(C)N(C)C(=O)[C@H]1CC[C@@H](n2/c(=N/C(=O)c3ccc(F)cc3)[nH]c3cnc(CN4CCCCC4)cc32)CC1 [Example 46]

IC50 [1]: 1000 to 5000 nM
Compound: CC(=O)[C@H]1CC[C@@H](n2/c(=N/C(=O)c3cccc(F)c3)[nH]c3ccc(CO)cc32)CC1 [Example 70]

IC50 [1]: 1000 to 5000 nM
Compound: CCOC(=O)[C@H]1CC[C@@H](n2/c(=N/C(=O)c3cccc(F)c3)[nH]c3cnc(OCCN4CCC(C(C)(C)O)CC4)cc32)CC1 [Example 79]

IC50 [1]: 1000 to 5000 nM
Compound: CNC(=O)[C@]1(O)CC[C@@H](n2/c(=N/C(=O)c3ccc(F)cc3)[nH]c3cnc(OCCN4CCCCC4)cc32)CC1 [Example 82]

IC50 [1]: 100 to 1000 nM
Compound: CNC(=O)[C@]1(O)CC[C@H](n2/c(=N/C(=O)c3ccc(F)cc3)[nH]c3cnc(OCCN4CCCCC4)cc32)CC1 [Example 83]

IC50 [1]: < 50 nM
Compound: COC(=O)[C@H]1CC[C@@H](n2/c(=N/C(=O)c3ccc(F)cc3)[nH]c3cnc(CN4CCOCC4)cc32)CC1 [Example 85]

IC50 [1]: 50 to 100 nM
Compound: CC(C)NC(=O)[C@H]1CC[C@@H](n2/c(=N/Cc3ccc4ccsc4c3)[nH]c3cnc(OCCN4CCCCC4)cc32)CC1 [Example 87]

IC50 [1]: 100 to 1000 nM
Compound: O=C(/N=c1\[nH]c2cnc(OCCN3CCCCC3)cc2n1[C@H]1CC[C@@H](C(=O)N2CCNCC2)CC1)c1ccc(F)cc1 [Example 124]

IC50 [1]: < 50 nM
Compound: CC(C)NC(=O)[C@H]1CC[C@@H](n2/c(=N/C(=O)c3cccc(F)c3)[nH]c3cnc(OCCN4CCC(C(C)(C)O)CC4)cc32)CC1 [Example 130]

IC50 [1]: 100 to 1000 nM
Compound: C=CCNS(=O)(=O)c1cccc(C(=O)/N=c2\[nH]c3cnc(OCCN4CCC(C(C)(C)O)CC4)cc3n2[C@H]2CC[C@H](C(=O)NC(C)C)CC2)c1 [Example 131]

IC50 [1]: < 50 nM
Compound: CC(C)NC(=O)[C@H]1CC[C@@H](n2/c(=N/C(=O)c3ccc(F)c(C#N)c3)[nH]c3ccc(CN4CCC(C(C)(C)O)CC4)cc32)CC1 [Example 146]

IC50 [1]: < 50 nM
Compound: CC(C)NC(=O)[C@H]1CC[C@@H](N2c3cc(O)ccc3NC2NC(=O)c2ccc(F)cc2)CC1 (stereo partly drawn) [Example 154]

IC50 [1]: < 50 nM
Compound: CC(C)NC(=O)[C@H]1CC[C@@H](n2/c(=N/C(=O)c3ccc(F)cc3)[nH]c3ccc(CN4CCN(S(=O)(=O)O)CC4)cc32)CC1 [Example 172]

IC50 [1]: < 50 nM
Compound: CC(C)NC(=O)[C@H]1CC[C@@H](n2/c(=N/C(=O)c3ccc(F)cc3)[nH]c3ccc(CN4CCN(C(N)=O)CC4)cc32)CC1 [Example 177]

IC50 [1]: 50 to 100 nM
Compound: CC(C)C(=O)N[C@H]1CC[C@@H](n2/c(=N/C(=O)c3ccc(F)cc3)[nH]c3cnc(CN4CCC(C(C)(C)O)CC4)cc32)CC1 [Example 227]

IC50 [1]: 50 to 100 nM
Compound: CC(=O)N[C@H]1CC[C@H](n2/c(=N/C(=O)c3cccc(F)c3)[nH]c3ccc(CN4CCC(C(C)(C)O)CC4)cc32)CC1 [Example 229]

IC50 ([1]; 2 nM enzyme, ATP 40 μM (Km apparent), 90 minutes, mean of three replicates): 50 to 100 nM
Compound: CCCNS(=O)(=O)c1cccc(C(=O)/N=c2\[nH]c3cnc(OCCN4CCCCC4)cc3n2C2CCC(C(N)=O)CC2)c1 (stereo not drawn) [Example 244]

IC50 (RET(M918T)): 1 to 100 nM
IC50 (TRKA): < 1 nM
IC50 (RET): 1 to 100 nM
IC50 (RET(G691S)): 1 to 100 nM
IC50 (EGFR(T790M)): > 1000 nM
IC50 (RET(Y791F)): 1 to 100 nM
IC50 (KDR): > 1000 nM
IC50 (TRKC): 1 to 100 nM
IC50 (RET(S 891A)): 1 to 100 nM
IC50 (FLT1): > 1000 nM
IC50 (TRKB): 1 to 100 nM
IC50 (FAK): 1 to 100 nM
IC50 (FLT4): > 1000 nM
Compound: CC(C)NC(=O)[C@H]1CC[C@@H](n2/c(=N/C(=O)c3ccc(F)cc3)[nH]c3ccc(CN4CCC(C(C)(C)O)CC4)cc32)CC1 [I-a]

IC50 (RET(M918T)): > 1000 nM
IC50 (TRKA): 1 to 100 nM
IC50 (RET): > 1000 nM
IC50 (RET(G691S)): > 1000 nM
IC50 (EGFR(T790M)): > 1000 nM
IC50 (RET(Y791F)): > 1000 nM
IC50 (KDR): > 1000 nM
IC50 (TRKC): 1 to 100 nM
IC50 (FLT3): 1 to 100 nM
IC50 (RET(S 891A)): 101 to 500 nM
IC50 (FLT1): > 1000 nM
IC50 (TRKB): 1 to 100 nM
IC50 (FAK): 101 to 500 nM
IC50 (FLT4): > 1000 nM
Compound: CC(C)NC(=O)[C@H]1CC[C@@H](n2/c(=N/C(=O)c3cc(F)cc(F)c3)[nH]c3ccc(CN4CCC(C(C)(C)O)CC4)cc32)CC1 [I-b]

Compound: tanezumab
adverse event: headache (NGF; among patients): 9%
adverse event: paresthesia (NGF; among patients): 7%
adverse event: upper respiratory infection (NGF; among patients): 7%
rate of adverse events (NGF; 55% in placebo group): 68%
